The values that follow are results of earlier work, collected in publication PMC7594070, “N-Alkylated Iminosugar Based Ligands: Synthesis and Inhibition of Human Lysosomal β-Glucocerebrosidase” (Molecules, 2020).

Broadly, the Ki is a dissociation constant, usually derived from enzyme kinetics or from competition with a known ligand.

The target of the data set is GCase. The note with it: cited from earlier work.

Like-named read-outs stand apart in the source and are kept apart here.

As to `OC[C@@H]1[C@@H](O)[C@H](O)[C@@H](O)CN1CCCCCCCCCn1cc(COCC(COCc2cn(CCCCCCCCCN3C[C@H](O)[C@@H](O)[C@H](O)[C@H]3CO)nn2)(COCc2cn(CCCCCCCCCN3C[C@H](O)[C@@H](O)[C@H](O)[C@H]3CO)nn2)COCc2cn(CCCCCCCCCN3C[C@H](O)[C@@H](O)[C@H](O)[C@H]3CO)nn2)nn1` [Compound 17], the inhibitory constant (Ki) (read-out: Ki GCase inhibition, multivalent iminosugars) was 55 nM.

Regarding `CC[C@@H]1[C@H](O)[C@@H](O)[C@H](O)CN1CCCCCC(=O)NCCc1c[nH]cn1` [Compound 20], the Ki (read-out: Ki GCase) was 4100 nM.
